Measured values: patent publication US20250152585A1, “PHARMACEUTICAL COMPOUND” (Duke Street Bio Limited, priority 2022, published 2025)
Read-outs that look alike come from different tables or passages of the source.

Assays:
[1] = molecular target: T1, N-terminally FLAG-tagged PARP2 (amino acids 1-583) (Homo sapiens, UniProt Q9UGN5); assay: PARP2 probe displacement HTRF assay; format: binding; details: binned Kd
T1 construct: N-terminally FLAG-tagged PARP2 (amino acids 1-583)
Description: Data analysis was performed identical as for PARP1.

[2] = molecular target: T2, PARP1 (Homo sapiens, UniProt P09874); assay: NanoBRET cellular target occupancy assay, PARP1; format: cell-based; details: for Kd: HEK293 cells transiently transfected with PARP1-NanoLuc fusion, tracer 11 nM, 2 hours at 37° C., Kd by Cheng-Prussoff; for Selectivity: NanoBRET, PARP1 over PARP2, Kd (PARP2)/Kd (PARP1)
T2 construct: host or cells: HEK293
T2 sequence (P09874 whole entry, the tested form may be a part): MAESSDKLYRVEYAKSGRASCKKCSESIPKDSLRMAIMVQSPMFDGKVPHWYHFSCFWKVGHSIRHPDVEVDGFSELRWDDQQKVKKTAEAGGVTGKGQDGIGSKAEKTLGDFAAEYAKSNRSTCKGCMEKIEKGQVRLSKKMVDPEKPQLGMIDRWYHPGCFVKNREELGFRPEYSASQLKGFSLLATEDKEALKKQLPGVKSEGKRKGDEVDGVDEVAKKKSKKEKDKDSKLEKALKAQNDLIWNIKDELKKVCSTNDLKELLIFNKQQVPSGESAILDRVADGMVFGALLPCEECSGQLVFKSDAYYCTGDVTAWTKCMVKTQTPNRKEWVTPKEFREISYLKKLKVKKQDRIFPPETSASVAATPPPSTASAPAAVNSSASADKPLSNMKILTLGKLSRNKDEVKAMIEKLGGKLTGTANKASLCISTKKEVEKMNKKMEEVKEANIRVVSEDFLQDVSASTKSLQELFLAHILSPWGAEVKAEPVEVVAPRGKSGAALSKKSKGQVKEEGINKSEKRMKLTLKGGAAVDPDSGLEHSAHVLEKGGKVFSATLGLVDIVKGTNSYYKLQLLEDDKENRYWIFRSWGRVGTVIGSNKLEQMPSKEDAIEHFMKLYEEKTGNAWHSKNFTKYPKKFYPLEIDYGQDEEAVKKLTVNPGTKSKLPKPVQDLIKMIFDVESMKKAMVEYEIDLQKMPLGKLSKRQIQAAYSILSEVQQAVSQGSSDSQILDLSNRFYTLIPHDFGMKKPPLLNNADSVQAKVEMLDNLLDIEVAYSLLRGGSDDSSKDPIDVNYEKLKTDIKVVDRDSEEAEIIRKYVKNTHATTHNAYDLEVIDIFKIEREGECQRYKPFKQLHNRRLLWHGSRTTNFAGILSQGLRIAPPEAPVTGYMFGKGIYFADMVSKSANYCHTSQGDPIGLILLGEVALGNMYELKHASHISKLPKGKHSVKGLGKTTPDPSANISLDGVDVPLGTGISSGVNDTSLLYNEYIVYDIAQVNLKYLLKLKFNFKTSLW

[3] = molecular target: T3, PARP2 (Homo sapiens, UniProt Q9UGN5); assay: NanoBRET cellular target occupancy assay, PARP2; format: cell-based; details: HEK293 cells transiently transfected with PARP2-NanoLuc fusion; tracer 2 nM; 2 hours at 37° C.; Kd by Cheng-Prussoff
T3 construct: host or cells: HEK293
T3 sequence (Q9UGN5 whole entry, the tested form may be a part): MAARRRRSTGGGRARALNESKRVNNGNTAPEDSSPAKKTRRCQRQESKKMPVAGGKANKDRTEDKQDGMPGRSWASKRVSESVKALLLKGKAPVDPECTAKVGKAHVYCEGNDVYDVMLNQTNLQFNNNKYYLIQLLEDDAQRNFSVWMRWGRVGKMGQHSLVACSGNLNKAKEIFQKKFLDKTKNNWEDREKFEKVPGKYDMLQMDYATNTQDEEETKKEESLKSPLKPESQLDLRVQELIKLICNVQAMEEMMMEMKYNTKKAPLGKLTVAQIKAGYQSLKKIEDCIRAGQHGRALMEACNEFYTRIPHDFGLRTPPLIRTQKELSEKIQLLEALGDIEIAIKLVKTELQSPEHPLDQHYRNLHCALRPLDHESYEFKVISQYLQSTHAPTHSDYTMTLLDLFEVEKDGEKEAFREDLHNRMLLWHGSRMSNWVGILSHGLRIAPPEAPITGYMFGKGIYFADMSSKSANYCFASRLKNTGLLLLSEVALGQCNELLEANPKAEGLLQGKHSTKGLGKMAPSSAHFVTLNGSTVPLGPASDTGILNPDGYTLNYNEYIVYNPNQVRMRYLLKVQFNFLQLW
Excerpt: NanoBRET Cellular Target Occupancy Assay

[4] = molecular target: T4, full length N-terminally FLAG-tagged PARP1 (Homo sapiens, UniProt P09874); assay: PARP1 biochemical DELFIA assay (auto-PARylation); parameters: recombinant full length human N-terminally FLAG-tagged PARP1
T4 sequence (P09874 whole entry): as the sequence (P09874 whole entry, the tested form may be a part) above

[5] = molecular target: T4, full length N-terminally FLAG-tagged PARP1; assay: PARP1 probe displacement HTRF assay; details: for Selectivity: PARP1 over PARP2, ratio Kd (PARP2)/Kd (PARP1); for Kd: binned Kd
[6] = binned IC50, PARP1 biochemical DELFIA assay
[7] = read-out: PARP1 HTRF, PARP1 probe displacement HTRF
[8] = binned IC50, biochemical auto-PARylation assay
[9] = PARP1 HTRF, probe displacement HTRF
[10] = read-out: PARP1 HTRF, probe displacement HTRF

T1 sequence (Q9UGN5 whole entry, the tested form may be a part): as the sequence (Q9UGN5 whole entry, the tested form may be a part) above

CNC(=O)c1ccc(N2CCC(N3CCC(c4cc5c(F)ccc(F)c5c(=O)[nH]4)C3)CC2)cn1 (single isomer, unassigned) [Compound 180b]
Kd ([1]; PARP2 probe displacement HTRF): 10 to 100 nM
Kd [2]: < 10 nM
Selectivity [2]: +++ (+++ indicate a value of at least 100)
Kd [3]: 100 to 1000 nM
IC50 [4, 6]: < 10 nM
Selectivity ([5]; probe displacement HTRF): ++ (++ indicates a value of 50 to less than 100)
Kd [5, 7]: < 10 nM

CNC(=O)c1ccc(N2CCC(N3CCC(c4cc5ccc(F)cc5c(=O)[nH]4)C3)CC2)c(F)n1 (single isomer, unassigned) [Compound 174a]
Kd ([1]; PARP2 probe displacement HTRF): 100 to 1000 nM
Kd [2]: < 10 nM
Selectivity [2]: +++ (+++ indicate a value of at least 100)
Kd [3]: 1000 to 10000 nM
IC50 [4, 6]: < 10 nM
Selectivity ([5]; probe displacement HTRF): +++ (+++ indicate a value of at least 100)
Kd [5, 7]: < 10 nM

CNC(=O)c1ccc(N2CCC(N3CCC(c4cc5cccc(F)c5c(=O)[nH]4)C3)CC2)c(Cl)n1 (single isomer, unassigned) [Compound 183b]
Kd ([1]; PARP2 probe displacement HTRF): 100 to 1000 nM
Kd [2]: < 10 nM
Selectivity [2]: +++ (+++ indicate a value of at least 100)
Kd [3]: 1000 to 10000 nM
IC50 [4, 6]: < 10 nM
Selectivity ([5]; probe displacement HTRF): +++ (+++ indicate a value of at least 100)
Kd [5, 7]: < 10 nM

CNC(=O)c1ccc(N2CCC(N3CC4(c5nc6ccccc6c(=O)[nH]5)CC3C4)CC2)c(F)n1 [Compound 260]
Kd ([1]; probe displacement HTRF): 1000 to 10000 nM
Kd [2]: < 10 nM
Selectivity [2]: +++ (+++ indicate a value of at least 100)
Kd [3]: > 10000 nM
IC50 [4, 8]: < 10 nM
Kd [5, 9]: < 10 nM
Selectivity ([5]; probe displacement HTRF): +++ (+++ indicate a value of at least 100)

CNC(=O)c1ccc(N2CCC(N3CCC(c4cc5ncc(F)cc5c(=O)[nH]4)C3)CC2)c(F)n1 (racemic) [Compound 324rac, 6-fluoro-5-(4-(3-(3-fluoro-5-oxo-5,6-dihydro-1,6-naphthyridin-7-yl)pyrrolidin-1-yl)piperidin-1-yl)-N-methylpicolinamide]
Kd ([1]; probe displacement HTRF): 100 to 1000 nM
Kd [2]: < 10 nM
Selectivity [2]: +++ (+++ indicate a value of at least 100)
Kd [3]: 1000 to 10000 nM
IC50 [4, 8]: < 10 nM
Kd [5, 9]: < 10 nM
Selectivity ([5]; probe displacement HTRF): +++ (+++ indicate a value of at least 100)

CNC(=O)c1ccc(N2CCC(N3CCC(c4cc5ccc(F)cc5c(=O)[nH]4)C3)CC2)c(F)n1 (racemic) [Compound 174rac]
Kd ([1]; PARP2 probe displacement HTRF): 100 to 1000 nM
Kd [2]: < 10 nM
Selectivity [2]: +++ (+++ indicate a value of at least 100)
Kd [3]: 1000 to 10000 nM
IC50 [4, 6]: < 10 nM
Selectivity ([5]; probe displacement HTRF): +++ (+++ indicate a value of at least 100)
Kd [5, 7]: < 10 nM

CNC(=O)c1ccc(N2CCC(N3CCC(c4cc5c(c(=O)[nH]4)CCCC5)C3)CC2)c(F)n1 (single isomer, unassigned) [Compound 337b, 6-fluoro-N-methyl-5-(4-(3-(1-oxo-1,2,5,6,7,8-hexahydroisoquinolin-3-yl)pyrrolidin-1-yl)piperidin-1-yl)picolinamide]
Kd [3]: 100 to 1000 nM
IC50 [4, 8]: < 10 nM
Selectivity ([5]; probe displacement HTRF): +++ (+++ indicate a value of at least 100)
Kd [5, 10]: < 10 nM

CNC(=O)c1ccc(N2CCC(N3CC4(c5nc6c(c(=O)[nH]5)CCC6)CC3C4)CC2)cn1 [Compound 295]
Kd ([1]; probe displacement HTRF): > 10000 nM
Kd [2]: 10 to 100 nM
Selectivity [2]: ++ (++ indicates a value of 50 to less than 100)
Kd [3]: > 10000 nM
IC50 [4, 8]: < 10 nM
Kd [5, 9]: < 10 nM
Selectivity ([5]; probe displacement HTRF): +++ (+++ indicate a value of at least 100)

CNC(=O)c1ccc(N2CCC(N3CC4(c5nc6ccc(F)cc6c(=O)[nH]5)CC3C4)CC2)c(F)n1 [Compound 259, 6-fluoro-5-(4-(4-(6-fluoro-4-oxo-3,4-dihydroquinazolin-2-yl)-2-azabicyclo[2.1.1]hexan-2-yl)piperidin-1-yl)-N-methylpicolinamide]
Kd ([1]; probe displacement HTRF): 100 to 1000 nM
Kd [2]: < 10 nM
Selectivity [2]: +++ (+++ indicate a value of at least 100)
Kd [3]: 1000 to 10000 nM
IC50 [4, 8]: < 10 nM
Kd [5, 9]: < 10 nM
Selectivity ([5]; probe displacement HTRF): +++ (+++ indicate a value of at least 100)

CNC(=O)c1ccc(N2CCC(N3CCC(c4cc5c(F)cncc5c(=O)[nH]4)C3)CC2)c(F)n1 (single isomer, unassigned) [Compound 343a, 6-fluoro-5-(4-(3-(5-fluoro-1-oxo-1,2-dihydro-2,7-naphthyridin-3-yl)pyrrolidin-1-yl)piperidin-1-yl)-N-methylpicolinamide]
Kd ([1]; probe displacement HTRF): 100 to 1000 nM
Kd [3]: 1000 to 10000 nM

CNC(=O)c1ccc(N2CCC(N3CCC(c4ncc(C)c(=O)[nH]4)C3)CC2)cn1 (single isomer, unassigned) [Compound 35b]
Kd ([1]; PARP2 probe displacement HTRF): > 10000 nM
IC50 [4, 6]: 10 to 100 nM
Selectivity ([5]; probe displacement HTRF): +++ (+++ indicate a value of at least 100)
Kd [5, 7]: 10 to 100 nM

CS(=O)(=O)Nc1ccc(N2CCC(N3CCC(c4nc5ccccc5c(=O)[nH]4)C3)CC2)cc1 (single isomer, unassigned) [Compound 250a]
Kd ([1]; probe displacement HTRF): 1000 to 10000 nM
IC50 [4, 8]: 100 to 1000 nM
Selectivity ([5]; probe displacement HTRF): − (− indicates a value of less than 10)
Kd [5, 10]: 100 to 1000 nM

CCc1nc(C(=O)NC)ccc1N1CCC(N2CCCC(c3nc4ccccc4c(=O)[nH]3)C2)CC1 (single isomer, unassigned) [Compound 112b]
Kd ([1]; PARP2 probe displacement HTRF): > 10000 nM
IC50 [4, 6]: 10 to 100 nM
Selectivity ([5]; probe displacement HTRF): +++ (+++ indicate a value of at least 100)
Kd [5, 7]: 10 to 100 nM

CCc1ccc(C2CCN(C3CCN(c4ccc(C#N)cn4)CC3)C2)[nH]c1=O (single isomer, unassigned) [Compound 332b]
Kd ([1]; probe displacement HTRF): 1000 to 10000 nM
IC50 [4, 8]: < 10 nM
Selectivity ([5]; probe displacement HTRF): +++ (+++ indicate a value of at least 100)
Kd [5, 10]: < 10 nM

CNC(=O)c1ccc(N2CCC(N3CCC(c4cc5cccc(F)c5c(=O)[nH]4)C3)CC2)cc1F (single isomer, unassigned) [Compound 281b]
Kd ([1]; probe displacement HTRF): 100 to 1000 nM
IC50 [4, 8]: 100 to 1000 nM
Selectivity ([5]; probe displacement HTRF): − (− indicates a value of less than 10)
Kd [5, 10]: 100 to 1000 nM

CNC(=O)c1ccc(N2CCC(N3CCCC(c4nc5c(F)cccc5c(=O)[nH]4)C3)CC2)cn1 (single isomer, unassigned) [Compound 114a]
Kd ([1]; PARP2 probe displacement HTRF): > 10000 nM
IC50 [4, 6]: < 10 nM
Selectivity ([5]; probe displacement HTRF): +++ (+++ indicate a value of at least 100)
Kd [5, 7]: < 10 nM

CNC(=O)c1ccc(N2CCC(N3CCC(c4cc5ncc(F)cc5c(=O)[nH]4)C3)CC2)c(F)n1 (single isomer, unassigned) [Compound 324b]
Kd ([1]; probe displacement HTRF): 100 to 1000 nM
IC50 [4, 8]: < 10 nM
Selectivity ([5]; probe displacement HTRF): +++ (+++ indicate a value of at least 100)
Kd [5, 10]: < 10 nM

CNC(=O)c1ccc(N2CCC(N3CCC(c4ncc(C(F)(F)F)c(=O)[nH]4)C3)CC2)cn1 (single isomer, unassigned) [Compound 56b]
Kd ([1]; PARP2 probe displacement HTRF): > 10000 nM
IC50 [4, 6]: 1000 to 10000 nM
Selectivity ([5]; probe displacement HTRF): − (− indicates a value of less than 10)
Kd [5, 7]: 100 to 1000 nM

CNC(=O)c1ccc(N2CCC(N3CCOC(c4nc5ccccc5c(=O)[nH]4)C3)CC2)cn1 (single isomer, unassigned) [Compound 58b]
Kd ([1]; PARP2 probe displacement HTRF): > 10000 nM
IC50 [4, 6]: 10 to 100 nM
Selectivity ([5]; probe displacement HTRF): ++ (++ indicates a value of 50 to less than 100)
Kd [5, 7]: 10 to 100 nM

CNC(=O)c1ccc(N2CCC(N3CCC(c4ccc(CC5CC5)c(=O)[nH]4)C3)CC2)cn1 (single isomer, unassigned) [Compound 213a]
Kd ([1]; PARP2 probe displacement HTRF): > 10000 nM
IC50 [4, 6]: 10 to 100 nM
Selectivity ([5]; probe displacement HTRF): +++ (+++ indicate a value of at least 100)
Kd [5, 7]: 10 to 100 nM

CNC(=O)c1ccc(N2CCC(N3CCC(c4nc(C)cc(=O)[nH]4)C3)CC2)cn1 (single isomer, unassigned) [Compound 97a]
Kd ([1]; PARP2 probe displacement HTRF): > 10000 nM
IC50 [4, 6]: > 10000 nM
Selectivity ([5]; probe displacement HTRF): − (− indicates a value of less than 10)
Kd [5, 7]: > 10000 nM
